Results taken from paper PMC6151788, “Biological Evaluation and Molecular Docking of Protocatechuic Acid from Hibiscus sabdariffa L. as a Potent Urease Inhibitor by an ESI-MS Based Method” (Molecules : A Journal of Synthetic Chemistry and Natural …, 2017).

Key:
Jack bean urease (JBU) [1] = molecular target: T1, Jack bean urease (JBU) (Canavalia ensiformis, UniProt P07374); test: ESI-MS urea depletion assay with purchased jack bean urease; standard inhibitor; type: biochemical
T1 construct: JBU-type III from Canavalia ensiformis

Jack bean urease (JBU) [2] = molecular target: T1, Jack bean urease (JBU); test: ESI-MS urea depletion assay with purchased jack bean urease; type: biochemical

T1 sequence (P07374 whole entry, looked up): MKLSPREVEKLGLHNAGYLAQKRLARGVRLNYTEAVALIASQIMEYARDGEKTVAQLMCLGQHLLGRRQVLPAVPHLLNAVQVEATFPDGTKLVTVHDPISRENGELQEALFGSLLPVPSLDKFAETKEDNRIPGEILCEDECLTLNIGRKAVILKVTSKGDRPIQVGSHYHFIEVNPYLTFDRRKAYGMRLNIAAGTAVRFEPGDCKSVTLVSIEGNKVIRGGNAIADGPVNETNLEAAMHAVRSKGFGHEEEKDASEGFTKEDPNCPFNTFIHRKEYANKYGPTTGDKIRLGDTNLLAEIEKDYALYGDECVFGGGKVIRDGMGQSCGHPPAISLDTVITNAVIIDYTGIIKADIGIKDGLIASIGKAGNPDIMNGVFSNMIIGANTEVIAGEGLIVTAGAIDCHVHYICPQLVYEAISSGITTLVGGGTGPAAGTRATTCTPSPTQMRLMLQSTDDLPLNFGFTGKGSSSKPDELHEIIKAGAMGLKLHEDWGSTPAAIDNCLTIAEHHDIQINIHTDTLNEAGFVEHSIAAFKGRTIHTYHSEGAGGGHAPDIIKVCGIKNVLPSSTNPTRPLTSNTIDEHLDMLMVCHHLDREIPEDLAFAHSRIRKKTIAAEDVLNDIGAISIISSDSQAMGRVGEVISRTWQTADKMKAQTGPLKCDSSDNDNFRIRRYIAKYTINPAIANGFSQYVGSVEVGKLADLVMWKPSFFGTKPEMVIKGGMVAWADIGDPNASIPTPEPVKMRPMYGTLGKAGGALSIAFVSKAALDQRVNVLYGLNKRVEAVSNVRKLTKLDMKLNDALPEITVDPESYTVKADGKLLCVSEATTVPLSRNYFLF

| Structure (SMILES) | IC50 (Jack bean urease (JBU) [1]) | IC50 (Jack bean urease (JBU) [2]) |
| --- | --- | --- |
| CC(=O)NO [AHA, acetohydroxamic acid] | 3.2 µM | – |
| O=C(O)c1ccc(O)c(O)c1 [PCA, 3,4-dihydroxybenzoic acid] | – | 1.7 µM |
